{"source": "paper PMC9292024", "about": "(The New Phytologist, 2021)", "key": {"SbMAX1c": {"molecular_target": "T1, SbMAX1c (Sorghum bicolor, UniProt A0A809Q895)", "T1 sequence (A0A809Q895 1-545)": "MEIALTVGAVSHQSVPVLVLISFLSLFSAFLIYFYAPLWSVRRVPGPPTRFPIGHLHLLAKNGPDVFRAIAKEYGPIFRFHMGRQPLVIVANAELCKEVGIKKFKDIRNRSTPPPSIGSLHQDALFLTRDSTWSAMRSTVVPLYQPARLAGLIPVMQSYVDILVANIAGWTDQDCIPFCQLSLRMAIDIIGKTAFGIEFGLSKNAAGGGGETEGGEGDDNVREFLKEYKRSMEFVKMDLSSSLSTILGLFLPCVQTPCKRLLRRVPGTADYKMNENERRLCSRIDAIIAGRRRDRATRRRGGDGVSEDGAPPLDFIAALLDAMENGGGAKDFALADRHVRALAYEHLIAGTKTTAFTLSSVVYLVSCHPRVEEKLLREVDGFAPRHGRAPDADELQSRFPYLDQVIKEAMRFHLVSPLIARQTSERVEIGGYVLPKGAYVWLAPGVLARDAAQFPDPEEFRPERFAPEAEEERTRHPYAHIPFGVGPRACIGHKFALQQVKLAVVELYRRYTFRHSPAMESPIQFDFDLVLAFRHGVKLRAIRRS", "assay": "yeast microsome conversion, LC-MS/MS", "type": "biochemical", "conditions": "33 μM rac-CL, 500 μM NADPH, 28°C, 1 h"}, "SbMAX1d": {"molecular_target": "T2, SbMAX1d (Sorghum bicolor, UniProt A0A809QVY0)", "T2 sequence (A0A809QVY0 1-539)": "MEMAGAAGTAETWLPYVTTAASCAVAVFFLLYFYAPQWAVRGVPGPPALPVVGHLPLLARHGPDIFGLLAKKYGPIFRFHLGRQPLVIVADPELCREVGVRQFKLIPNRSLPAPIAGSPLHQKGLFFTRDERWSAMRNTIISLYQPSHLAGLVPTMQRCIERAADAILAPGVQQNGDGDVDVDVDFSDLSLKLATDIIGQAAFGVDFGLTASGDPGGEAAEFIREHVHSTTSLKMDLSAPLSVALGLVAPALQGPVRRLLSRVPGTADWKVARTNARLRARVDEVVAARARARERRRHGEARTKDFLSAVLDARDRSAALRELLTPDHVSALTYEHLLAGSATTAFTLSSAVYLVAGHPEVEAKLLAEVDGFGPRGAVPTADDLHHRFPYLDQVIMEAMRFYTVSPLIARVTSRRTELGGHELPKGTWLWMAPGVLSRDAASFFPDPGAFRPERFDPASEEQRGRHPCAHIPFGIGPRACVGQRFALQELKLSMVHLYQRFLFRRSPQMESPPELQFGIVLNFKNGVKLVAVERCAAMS", "assay": "yeast microsome conversion, LC-MS/MS", "type": "biochemical", "conditions": "33 μM rac-CL, 500 μM NADPH, 28°C, 1 h"}}, "data": [{"compound": "CC1=CC(O/C=C(C)\\C=C\\C2=C(C)CCCC2(C)C)OC1=O", "note": "(racemic) [rac‐CL]", "values": [{"measurement": "yeast microsome conversion, LC-MS/MS", "setting": "SbMAX1c", "result": "expressing SbMAX1b, SbMAX1c, or SbMAX1d after incubation with rac‐CL"}, {"measurement": "yeast microsome conversion, LC-MS/MS", "setting": "SbMAX1d", "result": "expressing SbMAX1b, SbMAX1c, or SbMAX1d after incubation with rac‐CL"}]}]}
